According to paper PMC5218480 (PLoS ONE, 2017):

Test system: MV-4-11 cells
Experiment: Gene expression microarray analysis (Affymetrix PrimeView) and GSEA
Format: cell-based, human
Parameters: RFU PODN (11730768_x_at) / Fold change /veh PODN (11730768_x_at) / RFU LINC00158 (11744669_a_at) / Fold change /veh LINC00158 (11744669_a_at) / RFU DUSP10 (11751237_a_at) / Fold change /veh DUSP10 (11751237_a_at) / RFU ID3 (11757404_x_at) / Fold change /veh ID3 (11757404_x_at) / RFU PLEKHG5 (11737974_s_at) / Fold change /veh PLEKHG5 (11737974_s_at) / RFU LRRC4B (11730491_at) / Fold change /veh LRRC4B (11730491_at) / RFU GIMAP4 (11747438_a_at) / Fold change /veh GIMAP4 (11747438_a_at) / RFU KRT8 (11758183_x_at) / Fold change /veh KRT8 (11758183_x_at) / RFU CNN1 (11734310_a_at) / Fold change /veh CNN1 (11734310_a_at) / RFU VPS37D (11726825_at) / Fold change /veh VPS37D (11726825_at) / RFU C10orf10 (11716522_x_at) / Fold change /veh C10orf10 (11716522_x_at) / RFU KIR2DL2 /// KIR2DL4 /// KIR2DL5A /// KIR2DL5B /// KIR2DS1 /// KIR2DS2 /// KIR2DS3 /// KIR2DS4 /// KIR3DL3 /// KIR3DL3 /// KIR3DS1 (11738374_at) / Fold change /veh KIR2DL2 /// KIR2DL4 /// KIR2DL5A /// KIR2DL5B /// KIR2DS1 /// KIR2DS2 /// KIR2DS3 /// KIR2DS4 /// KIR3DL3 /// KIR3DL3 /// KIR3DS1 (11738374_at) / RFU C1QL1 (11718748_at) / Fold change /veh C1QL1 (11718748_at) / RFU TMPRSS4 (11747572_a_at) / Fold change /veh TMPRSS4 (11747572_a_at) / RFU HAMP (11756126_x_at) / Fold change /veh HAMP (11756126_x_at) / RFU RNFT2 (11725882_a_at) / Fold change /veh RNFT2 (11725882_a_at) / RFU NR4A2 (11747474_a_at) / Fold change /veh NR4A2 (11747474_a_at) / RFU ABCC12 (11746883_a_at) / Fold change /veh ABCC12 (11746883_a_at) / RFU TMEM136 (11760407_x_at) / Fold change /veh TMEM136 (11760407_x_at) / RFU CLDN22 /// WWC2 (11732394_at) / Fold change /veh CLDN22 /// WWC2 (11732394_at) / RFU HLA-DPB1 (11760878_x_at) / Fold change /veh HLA-DPB1 (11760878_x_at) / RFU SPINT1 (11716480_a_at) / Fold change /veh SPINT1 (11716480_a_at) / RFU GAP43 (11754022_s_at) / Fold change /veh GAP43 (11754022_s_at) / RFU A4GNT (11735810_at) / Fold change /veh A4GNT (11735810_at) / RFU PRB3 (11715151_x_at) / Fold change /veh PRB3 (11715151_x_at) / RFU TUBB4B (11761932_at) / Fold change /veh TUBB4B (11761932_at) / RFU CAPN14 (11732068_a_at) / Fold change /veh CAPN14 (11732068_a_at) / RFU TMCC2 (11721928_a_at) / Fold change /veh TMCC2 (11721928_a_at) / RFU IRGQ (11745062_a_at) / Fold change /veh IRGQ (11745062_a_at) / RFU FAM174B (11720279_a_at) / Fold change /veh FAM174B (11720279_a_at) / RFU TMPRSS4 (11748680_a_at) / Fold change /veh TMPRSS4 (11748680_a_at) / RFU FAM212B (11763350_a_at) / Fold change /veh FAM212B (11763350_a_at) / RFU PLEKHG5 (11743358_a_at) / Fold change /veh PLEKHG5 (11743358_a_at) / RFU ZSCAN30 (11745921_a_at) / Fold change /veh ZSCAN30 (11745921_a_at) / RFU CMKLR1 (11741424_a_at) / Fold change /veh CMKLR1 (11741424_a_at) / RFU LOC101060620 /// MAPK8IP1 (11723275_at) / Fold change /veh LOC101060620 /// MAPK8IP1 (11723275_at) / RFU SPTSSB (11747773_x_at) / Fold change /veh SPTSSB (11747773_x_at) / RFU PRSS12 (11739890_at) / Fold change /veh PRSS12 (11739890_at) / RFU BIN1 (11741810_x_at) / Fold change /veh BIN1 (11741810_x_at) / RFU WNT11 (11732464_a_at) / Fold change /veh WNT11 (11732464_a_at) / RFU C10orf10 (11716521_a_at) / Fold change /veh C10orf10 (11716521_a_at) / RFU C5orf56 (11738089_at) / Fold change /veh C5orf56 (11738089_at) / RFU CYB561 (11721691_x_at) / Fold change /veh CYB561 (11721691_x_at) / RFU ANKRD19P (11752326_a_at) / Fold change /veh ANKRD19P (11752326_a_at) / RFU OR2T12 /// OR2T33 /// OR2T8 (11738714_s_at) / Fold change /veh OR2T12 /// OR2T33 /// OR2T8 (11738714_s_at) / RFU VCAN (11748164_a_at) / Fold change /veh VCAN (11748164_a_at) / RFU JSRP1 (11732532_at) / Fold change /veh JSRP1 (11732532_at) / RFU KRTAP10-11 (11738290_x_at) / Fold change /veh KRTAP10-11 (11738290_x_at) / RFU MYO3A (11730013_a_at) / Fold change /veh MYO3A (11730013_a_at) / RFU EBF3 (11725865_a_at) / Fold change /veh EBF3 (11725865_a_at) / RFU CAMK2N1 (11719241_x_at) / Fold change /veh CAMK2N1 (11719241_x_at) / RFU C5orf56 (11738088_a_at) / Fold change /veh C5orf56 (11738088_a_at) / RFU OLFML3 (11715873_a_at) / Fold change /veh OLFML3 (11715873_a_at) / RFU LOC100653217 /// NTM (11731650_a_at) / Fold change /veh LOC100653217 /// NTM (11731650_a_at) / RFU MAPK11 (11762145_a_at) / Fold change /veh MAPK11 (11762145_a_at) / RFU FIZ1 (11724087_x_at) / Fold change /veh FIZ1 (11724087_x_at) / RFU OASL (11726364_x_at) / Fold change /veh OASL (11726364_x_at) / RFU SOX15 (11748057_x_at) / Fold change /veh SOX15 (11748057_x_at) / RFU CD79A (11719716_a_at) / Fold change /veh CD79A (11719716_a_at) / RFU HIST1H1D (11736915_at) / Fold change /veh HIST1H1D (11736915_at) / RFU CASKIN2 (11723855_a_at) / Fold change /veh CASKIN2 (11723855_a_at) / RFU LOC730098 (11760151_x_at) / Fold change /veh LOC730098 (11760151_x_at) / RFU OR4N2 (11742367_at) / Fold change /veh OR4N2 (11742367_at) / RFU PRRT2 (11749266_a_at) / Fold change /veh PRRT2 (11749266_a_at) / RFU SNX32 (11753110_a_at) / Fold change /veh SNX32 (11753110_a_at) / RFU CDHR5 (11726645_a_at) / Fold change /veh CDHR5 (11726645_a_at) / RFU RCAN1 (11760418_a_at) / Fold change /veh RCAN1 (11760418_a_at) / RFU FAM167A (11723789_a_at) / Fold change /veh FAM167A (11723789_a_at) / RFU FAM26E (11764081_at) / Fold change /veh FAM26E (11764081_at) / RFU ISYNA1 (11749810_s_at) / Fold change /veh ISYNA1 (11749810_s_at) / RFU ACY1 (11761880_at) / Fold change /veh ACY1 (11761880_at) / RFU 11764098_at / Fold change /veh 11764098_at / RFU SAMD14 (11745864_x_at) / Fold change /veh SAMD14 (11745864_x_at) / RFU NPB (11741838_a_at) / Fold change /veh NPB (11741838_a_at) / RFU TMPRSS6 (11731388_a_at) / Fold change /veh TMPRSS6 (11731388_a_at) / RFU KRTAP10-2 (11738614_at) / Fold change /veh KRTAP10-2 (11738614_at) / RFU ARHGAP8 /// PRR5-ARHGAP8 (11727945_x_at) / Fold change /veh ARHGAP8 /// PRR5-ARHGAP8 (11727945_x_at) / RFU KRTAP5-7 /// NADSYN1 (11734609_at) / Fold change /veh KRTAP5-7 /// NADSYN1 (11734609_at) / RFU RASL12 (11751679_a_at) / Fold change /veh RASL12 (11751679_a_at) / RFU CDKN2B (11736163_a_at) / Fold change /veh CDKN2B (11736163_a_at) / RFU PRF1 (11729649_at) / Fold change /veh PRF1 (11729649_at) / RFU, ZNF638 /// ZNF638-IT1 / Fold change vs veh, ZNF638 /// ZNF638-IT1 / RFU, PANK3 / Fold change vs veh, PANK3 / RFU, SH3YL1 / Fold change vs veh, SH3YL1 / RFU, ZEB2 / Fold change vs veh, ZEB2 / RFU, NRIP1 / Fold change vs veh, NRIP1 / RFU, PTTG1IP / Fold change vs veh, PTTG1IP / RFU, CAPN2 / Fold change vs veh, CAPN2 / RFU, MED14 / Fold change vs veh, MED14 / RFU, SNORA58 / Fold change vs veh, SNORA58 / RFU, C1orf63 / Fold change vs veh, C1orf63 / RFU, LRRFIP1 / Fold change vs veh, LRRFIP1 / RFU, NDUFAF7 / Fold change vs veh, NDUFAF7 / RFU, SLC12A2 / Fold change vs veh, SLC12A2 / RFU, IBTK / Fold change vs veh, IBTK / RFU, ESF1 / Fold change vs veh, ESF1 / Fold change vs veh, TMEM50B / RFU, TAOK1 / Fold change vs veh, TAOK1 / RFU, ACBD3 / Fold change vs veh, ACBD3 / RFU, TMA16 / Fold change vs veh, TMA16 / RFU, RWDD3 / Fold change vs veh, RWDD3 / RFU, BCAT1 / Fold change vs veh, BCAT1 / RFU, EDEM3 / Fold change vs veh, EDEM3 / RFU, TMEM33 / Fold change vs veh, TMEM33 / RFU, WDR75 / Fold change vs veh, WDR75 / RFU, AHCTF1 / Fold change vs veh, AHCTF1 / RFU, TFRC / Fold change vs veh, TFRC / RFU, ZDHHC17 / Fold change vs veh, ZDHHC17 / RFU, NOM1 / Fold change vs veh, NOM1 / RFU, ARL8B / Fold change vs veh, ARL8B / RFU, ZBTB11 / Fold change vs veh, ZBTB11 / RFU, TAMM41 / Fold change vs veh, TAMM41 / RFU, KIAA1704 /// LOC100996395 / Fold change vs veh, KIAA1704 /// LOC100996395 / RFU, ING1 / Fold change vs veh, ING1 / RFU, TRMT61B / Fold change vs veh, TRMT61B / RFU, FUBP3 / Fold change vs veh, FUBP3 / RFU, TP53 / Fold change vs veh, TP53 / RFU, TNKS2 / Fold change vs veh, TNKS2 / RFU, ZFP14 / Fold change vs veh, ZFP14 / RFU, ACTR2 / Fold change vs veh, ACTR2 / RFU, PPP3R1 / Fold change vs veh, PPP3R1 / RFU, PIK3R1 / Fold change vs veh, PIK3R1 / RFU, HNRNPA1 / Fold change vs veh, HNRNPA1 / RFU, RNF170 / Fold change vs veh, RNF170 / RFU, ZNF28 / Fold change vs veh, ZNF28 / RFU, RNGTT / Fold change vs veh, RNGTT / RFU, OGT / Fold change vs veh, OGT / RFU, BRD1 / Fold change vs veh, BRD1 / RFU, MARS / Fold change vs veh, MARS / RFU, ZNF655 / Fold change vs veh, ZNF655 / RFU, FAHD1 / Fold change vs veh, FAHD1 / RFU, BDP1 / Fold change vs veh, BDP1 / RFU, LRRCC1 / Fold change vs veh, LRRCC1 / RFU, ARID1A / Fold change vs veh, ARID1A / RFU, ZNF146 / Fold change vs veh, ZNF146 / RFU, ZNF330 / Fold change vs veh, ZNF330 / RFU, GPN3 / Fold change vs veh, GPN3 / RFU, C9orf123 / Fold change vs veh, C9orf123 / RFU, N4BP2L2 / Fold change vs veh, N4BP2L2 / RFU, ARFIP1 / Fold change vs veh, ARFIP1 / RFU, FAM179B / Fold change vs veh, FAM179B / RFU, BCL10 / Fold change vs veh, BCL10 / RFU, UHRF1BP1L / Fold change vs veh, UHRF1BP1L / RFU, BET1 / Fold change vs veh, BET1 / RFU, CNOT2 / Fold change vs veh, CNOT2 / RFU, ZNF268 / Fold change vs veh, ZNF268 / Fold change vs veh, ZNF507 / RFU, DGCR2 / Fold change vs veh, DGCR2 / RFU, WDSUB1 / Fold change vs veh, WDSUB1 / Fold change vs veh, HSP90B1 /// MIR3652 / RFU, ADSS / Fold change vs veh, ADSS / RFU, GK / Fold change vs veh, GK / RFU, ZNF148 / Fold change vs veh, ZNF148 / RFU, TAF9 / Fold change vs veh, TAF9 / RFU, SLC1A5 / Fold change vs veh, SLC1A5 / RFU, SLMO2 / Fold change vs veh, SLMO2 / RFU, ABCC4 / Fold change vs veh, ABCC4 / RFU, LOC101060439 /// RAP1B / Fold change vs veh, LOC101060439 /// RAP1B / RFU, RFX7 / Fold change vs veh, RFX7 / RFU, GTPBP10 / Fold change vs veh, GTPBP10 / RFU, CNEP1R1 / Fold change vs veh, CNEP1R1 / RFU, BIVM-ERCC5 /// ERCC5 / Fold change vs veh, BIVM-ERCC5 /// ERCC5 / RFU, ILF3 / Fold change vs veh, ILF3 / RFU 11762660_at / Fold change /veh 11762660_at / RFU VCAN (11757783_s_at) / Fold change /veh VCAN (11757783_s_at) / RFU DDX43 (11728927_at) / Fold change /veh DDX43 (11728927_at) / RFU KRT8 (11758188_x_at) / Fold change /veh KRT8 (11758188_x_at) / RFU NKD1 (11759106_at) / Fold change /veh NKD1 (11759106_at) / RFU SRD5A1 (11742802_a_at) / Fold change /veh SRD5A1 (11742802_a_at) / RFU TPSAB1 /// TPSB2 (11721975_s_at) / Fold change /veh TPSAB1 /// TPSB2 (11721975_s_at) / RFU GSTM3 (11746129_a_at) / Fold change /veh GSTM3 (11746129_a_at) / RFU IL23R (11737362_x_at) / Fold change /veh IL23R (11737362_x_at) / RFU TMEM51 (11727254_a_at) / Fold change /veh TMEM51 (11727254_a_at) / RFU PIWIL2 (11732686_x_at) / Fold change /veh PIWIL2 (11732686_x_at) / RFU ORM1 (11744905_x_at) / Fold change /veh ORM1 (11744905_x_at) / RFU CCDC152 (11743942_at) / Fold change /veh CCDC152 (11743942_at) / RFU ECM1 (11717891_a_at) / Fold change /veh ECM1 (11717891_a_at) / RFU IL23R (11748794_a_at) / Fold change /veh IL23R (11748794_a_at) / RFU TNFAIP8L3 (11732012_x_at) / Fold change /veh TNFAIP8L3 (11732012_x_at) / RFU MBOAT4 (11741988_at) / Fold change /veh MBOAT4 (11741988_at) / RFU 11764193_at / Fold change /veh 11764193_at / RFU TMEM53 (11763286_at) / Fold change /veh TMEM53 (11763286_at) / RFU MAGEB2 (11727129_at) / Fold change /veh MAGEB2 (11727129_at) / RFU TMEM200A (11744735_a_at) / Fold change /veh TMEM200A (11744735_a_at) / RFU CCDC152 (11751479_a_at) / Fold change /veh CCDC152 (11751479_a_at) / RFU FAM211A (11726209_a_at) / Fold change /veh FAM211A (11726209_a_at) / RFU RGS16 (11746705_a_at) / Fold change /veh RGS16 (11746705_a_at) / RFU VCAN (11755009_s_at) / Fold change /veh VCAN (11755009_s_at) / RFU RHOB (11743442_s_at) / Fold change /veh RHOB (11743442_s_at) / RFU RGS16 (11720943_a_at) / Fold change /veh RGS16 (11720943_a_at) / RFU RGS16 (11720944_at) / Fold change /veh RGS16 (11720944_at) / RFU, VPS4B / Fold change vs veh, VPS4B / RFU, CREB1 / Fold change vs veh, CREB1 / RFU, DNAJC13 / Fold change vs veh, DNAJC13 / RFU, GNAQ / Fold change vs veh, GNAQ / RFU, CDK5R1 / Fold change vs veh, CDK5R1 / RFU, ZRANB3 / Fold change vs veh, ZRANB3 / RFU, CUL4A / Fold change vs veh, CUL4A / RFU, CCNY / Fold change vs veh, CCNY / RFU, UFL1 / Fold change vs veh, UFL1 / RFU, COG3 / Fold change vs veh, COG3 / RFU, DIAPH2 / Fold change vs veh, DIAPH2 / RFU, SKA2 / Fold change vs veh, SKA2 / RFU, AFF3 / Fold change vs veh, AFF3 / RFU, LMF1 / Fold change vs veh, LMF1 / RFU, IPO11 / Fold change vs veh, IPO11 / RFU, DFFB / Fold change vs veh, DFFB / RFU, FOXP1 / Fold change vs veh, FOXP1 / RFU, CARD8 / Fold change vs veh, CARD8 / RFU, STRN3 / Fold change vs veh, STRN3 / RFU, ADK / Fold change vs veh, ADK / RFU, RASSF2 / Fold change vs veh, RASSF2 / RFU, WIPF1 / Fold change vs veh, WIPF1 / RFU, LARP1B / Fold change vs veh, LARP1B / RFU, RASA1 / Fold change vs veh, RASA1 / RFU, RB1 / Fold change vs veh, RB1 / RFU, PPFIA1 / Fold change vs veh, PPFIA1 / RFU, MAT2A / Fold change vs veh, MAT2A / RFU, CCT5 / Fold change vs veh, CCT5 / RFU, WDR92 / Fold change vs veh, WDR92 / RFU, CUX1 / Fold change vs veh, CUX1 / RFU, TTC7A / Fold change vs veh, TTC7A / RFU, TMEM135 / Fold change vs veh, TMEM135 / RFU, DEPTOR / Fold change vs veh, DEPTOR / RFU, CPM / Fold change vs veh, CPM / RFU, DNAJB6 / Fold change vs veh, DNAJB6 / RFU, CACNA2D3 / Fold change vs veh, CACNA2D3 / RFU, DTX4 / Fold change vs veh, DTX4 / RFU, TFCP2 / Fold change vs veh, TFCP2 / RFU, GMCL1 /// GMCL1P1 / Fold change vs veh, GMCL1 /// GMCL1P1 / RFU, AEBP2 / Fold change vs veh, AEBP2 / RFU, SNHG1 /// SNORD22 /// SNORD25 /// SNORD26 /// SNORD27 /// SNORD28 /// SNORD29 /// SNORD31 / Fold change vs veh, SNHG1 /// SNORD22 /// SNORD25 /// SNORD26 /// SNORD27 /// SNORD28 /// SNORD29 /// SNORD31 / Fold change (Aza/veh), C12orf56 (ProbeSet 11735607_a_at) / Fold change (ACY-1035/veh), C12orf56 (ProbeSet 11735607_a_at) / Fold change (Aza/veh), FGFR1OP (ProbeSet 11751329_s_at) / Fold change (ACY-1035/veh), FGFR1OP (ProbeSet 11751329_s_at) / Fold change (Aza/veh), VPS36 (ProbeSet 11739960_a_at) / Fold change (ACY-1035/veh), VPS36 (ProbeSet 11739960_a_at) / RFU SYPL1 (11715823_x_at) / Fold change /veh SYPL1 (11715823_x_at) / RFU IGFBP7 (11715501_s_at) / Fold change /veh IGFBP7 (11715501_s_at) / RFU REEP3 (11722064_at) / Fold change /veh REEP3 (11722064_at) / RFU IGLL1 (11728026_x_at) / Fold change /veh IGLL1 (11728026_x_at): dose or concentration left out as unconfirmed
Settings: ProbeSet 11733108_at; LIST D

Nc1ccc(-c2cccs2)cc1NC(=O)c1ccc2c(c1)cc(C1CC1)n2CCN1CCOCC1 [ACY-1035]
Fold change vs veh, GNAQ: 0.91
